Measured values reported in patent US20100267561A1, “HERBICIDAL PYRIDAZINONE DERIVATIVES” (priority 2007, published 2010).

How the values were obtained:
Assay in all cases: Test E pre-/postemergence plant response
Type in all cases: in vivo
[1] = test system: annual bluegrass (Poa annua); details: scale 0 to 100
Summary of the method: (§1)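 Pre/post herbicide screen; formulation: non-phytotoxic solvent mix + surfactant. Post timing 1–4 leaves (2–18 cm ht). Greenhouse 14–21 d; visual 0 (none) to 100 (complete control) vs controls.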

[2] = test system: naked crabgrass (Digitaria nuda); details: scale 0 to 100
Summary of the method: as §1

[3] = test system: large crabgrass (Digitaria sanguinalis); details: scale 0 to 100
Summary of the method: as §1

[4] = test system: surinam grass (Brachiaria decumbens); details: scale 0 to 100
Summary of the method: as §1

[5] = test system: common mallow (Malva sylvestris); details: scale 0 to 100
Summary of the method: as §1

[6] = test system: purple nutsedge (Cyperus rotundus); details: scale 0 to 100
Summary of the method: as §1

[7] = test system: green foxtail (Setaria viridis); details: scale 0 to 100
Summary of the method: as §1

[8] = test system: itchgrass (Rottboellia cochinchinensis); details: scale 0 to 100
Summary of the method: as §1

[9] = test system: common chickweed (Stellaria media); details: 16 g ai/ha, Preemergence, scale 0 to 100
Summary of the method: as §1

[10] = test system: Italian ryegrass (Lolium multiflorum); details: scale 0 to 100
Summary of the method: as §1

[11] = test system: pitted morningglory (Ipomoea lacunosa); details: scale 0 to 100
Summary of the method: as §1

[12] = test system: johnsongrass (Sorghum halepense); details: scale 0 to 100
Summary of the method: as §1

[13] = test system: broadleaf signalgrass (Brachiaria platyphylla); details: scale 0 to 100
Summary of the method: as §1

[14] = test system: quackgrass (Elytrigia repens); details: scale 0 to 100
Summary of the method: as §1

[15] = test system: bermudagrass (Cynodon dactylon); details: scale 0 to 100
Summary of the method: as §1

Cc1cc(-c2ccc(Cl)cc2)nn1-c1c(OC(=O)C(C)C)cnn(C)c1=O [Compound 34]
Plant response rating, Bluegrass ([1]; 16 g ai/ha, Preemergence): 0
Plant response rating, Bluegrass ([1]; 31 g ai/ha, Preemergence): 0
Plant response rating, Bluegrass ([1]; 62 g ai/ha, Preemergence): 15
Plant response rating, Bluegrass ([1]; Postemergence, 8 g ai/ha): 0
Plant response rating, Bluegrass ([1]; Postemergence, 16 g ai/ha): 0
Plant response rating, Bluegrass ([1]; Postemergence, 31 g ai/ha): 0
Plant response rating, Bluegrass ([1]; Postemergence, 62 g ai/ha): 0
Plant response rating, Crabgrass, Naked ([2]; 16 g ai/ha, Preemergence): 100
Plant response rating, Crabgrass, Naked ([2]; 31 g ai/ha, Preemergence): 100
Plant response rating, Crabgrass, Naked ([2]; 62 g ai/ha, Preemergence): 100
Plant response rating, Crabgrass, Naked ([2]; Postemergence, 8 g ai/ha): 40
Plant response rating, Crabgrass, Naked ([2]; Postemergence, 16 g ai/ha): 80
Plant response rating, Crabgrass, Naked ([2]; Postemergence, 62 g ai/ha): 100
Plant response rating, Crabgrass, Large ([3]; 31 g ai/ha, Preemergence): 50
Plant response rating, Crabgrass, Large ([3]; 62 g ai/ha, Preemergence): 100
Plant response rating, Crabgrass, Large ([3]; Postemergence, 8 g ai/ha): 60
Plant response rating, Crabgrass, Large ([3]; Postemergence, 16 g ai/ha): 75
Plant response rating, Crabgrass, Large ([3]; Postemergence, 31 g ai/ha): 100
Plant response rating, Crabgrass, Large ([3]; Postemergence, 62 g ai/ha): 100
Plant response rating, Surinam Grass ([4]; 16 g ai/ha, Preemergence): 98
Plant response rating, Surinam Grass ([4]; 31 g ai/ha, Preemergence): 100
Plant response rating, Surinam Grass ([4]; 62 g ai/ha, Preemergence): 100
Plant response rating, Surinam Grass ([4]; Postemergence, 8 g ai/ha): 90
Plant response rating, Surinam Grass ([4]; Postemergence, 16 g ai/ha): 98
Plant response rating, Surinam Grass ([4]; Postemergence, 31 g ai/ha): 100
Plant response rating, Surinam Grass ([4]; Postemergence, 62 g ai/ha): 100
Plant response rating, Mallow ([5]; 16 g ai/ha, Preemergence): 0
Plant response rating, Mallow ([5]; 31 g ai/ha, Preemergence): 0
Plant response rating, Mallow ([5]; 62 g ai/ha, Preemergence): 0
Plant response rating, Mallow ([5]; Postemergence, 8 g ai/ha): 0
Plant response rating, Mallow ([5]; Postemergence, 16 g ai/ha): 0
Plant response rating, Mallow ([5]; Postemergence, 31 g ai/ha): 0
Plant response rating, Mallow ([5]; Postemergence, 62 g ai/ha): 0
Plant response rating, Nutsedge, Purple ([6]; 16 g ai/ha, Preemergence): 0
Plant response rating, Nutsedge, Purple ([6]; 31 g ai/ha, Preemergence): 20
Plant response rating, Nutsedge, Purple ([6]; 62 g ai/ha, Preemergence): 35
Plant response rating, Nutsedge, Purple ([6]; Postemergence, 8 g ai/ha): 0
Plant response rating, Nutsedge, Purple ([6]; Postemergence, 16 g ai/ha): 0
Plant response rating, Nutsedge, Purple ([6]; Postemergence, 31 g ai/ha): 0
Plant response rating, Nutsedge, Purple ([6]; Postemergence, 62 g ai/ha): 0
Plant response rating, Foxtail, Green ([7]; 16 g ai/ha, Preemergence): 65
Plant response rating, Foxtail, Green ([7]; 31 g ai/ha, Preemergence): 75
Plant response rating, Foxtail, Green ([7]; 62 g ai/ha, Preemergence): 100
Plant response rating, Foxtail, Green ([7]; Postemergence, 8 g ai/ha): 50
Plant response rating, Foxtail, Green ([7]; Postemergence, 16 g ai/ha): 75
Plant response rating, Foxtail, Green ([7]; Postemergence, 31 g ai/ha): 95
Plant response rating, Foxtail, Green ([7]; Postemergence, 62 g ai/ha): 98
Plant response rating, Itchgrass ([8]; 16 g ai/ha, Preemergence): 80
Plant response rating, Itchgrass ([8]; 31 g ai/ha, Preemergence): 85
Plant response rating, Itchgrass ([8]; 62 g ai/ha, Preemergence): 90
Plant response rating, Itchgrass ([8]; Postemergence, 8 g ai/ha): 70
Plant response rating, Itchgrass ([8]; Postemergence, 16 g ai/ha): 80
Plant response rating, Itchgrass ([8]; Postemergence, 31 g ai/ha): 95
Plant response rating, Itchgrass ([8]; Postemergence, 62 g ai/ha): 95
Plant response rating, Chickweed [9]: 0
Plant response rating, Ryegrass, Italian ([10]; 16 g ai/ha, Preemergence): 80
Plant response rating, Ryegrass, Italian ([10]; 31 g ai/ha, Preemergence): 100
Plant response rating, Ryegrass, Italian ([10]; 62 g ai/ha, Preemergence): 100
Plant response rating, Ryegrass, Italian ([10]; Postemergence, 8 g ai/ha): 60
Plant response rating, Ryegrass, Italian ([10]; Postemergence, 16 g ai/ha): 95
Plant response rating, Ryegrass, Italian ([10]; Postemergence, 31 g ai/ha): 100
Plant response rating, Ryegrass, Italian ([10]; Postemergence, 62 g ai/ha): 100
Plant response rating, Morningglory ([11]; 16 g ai/ha, Preemergence): 0
Plant response rating, Morningglory ([11]; 31 g ai/ha, Preemergence): 0
Plant response rating, Morningglory ([11]; 62 g ai/ha, Preemergence): 0
Plant response rating, Morningglory ([11]; Postemergence, 8 g ai/ha): 0
Plant response rating, Morningglory ([11]; Postemergence, 16 g ai/ha): 0
Plant response rating, Morningglory ([11]; Postemergence, 31 g ai/ha): 0
Plant response rating, Morningglory ([11]; Postemergence, 62 g ai/ha): 30
Plant response rating, Johnsongrass ([12]; 16 g ai/ha, Preemergence): 50
Plant response rating, Johnsongrass ([12]; 31 g ai/ha, Preemergence): 90
Plant response rating, Johnsongrass ([12]; 62 g ai/ha, Preemergence): 90
Plant response rating, Johnsongrass ([12]; Postemergence, 8 g ai/ha): 10
Plant response rating, Johnsongrass ([12]; Postemergence, 16 g ai/ha): 80
Plant response rating, Johnsongrass ([12]; Postemergence, 31 g ai/ha): 98
Plant response rating, Johnsongrass ([12]; Postemergence, 62 g ai/ha): 100
Plant response rating, Signalgrass ([13]; 16 g ai/ha, Preemergence): 65
Plant response rating, Signalgrass ([13]; 31 g ai/ha, Preemergence): 90
Plant response rating, Signalgrass ([13]; 62 g ai/ha, Preemergence): 100
Plant response rating, Signalgrass ([13]; Postemergence, 8 g ai/ha): 75
Plant response rating, Signalgrass ([13]; Postemergence, 16 g ai/ha): 85
Plant response rating, Signalgrass ([13]; Postemergence, 31 g ai/ha): 95
Plant response rating, Signalgrass ([13]; Postemergence, 62 g ai/ha): 100
Plant response rating, Quackgrass ([14]; 16 g ai/ha, Preemergence): 20
Plant response rating, Quackgrass ([14]; 31 g ai/ha, Preemergence): 50
Plant response rating, Quackgrass ([14]; 62 g ai/ha, Preemergence): 70
Plant response rating, Quackgrass ([14]; Postemergence, 8 g ai/ha): 0
Plant response rating, Quackgrass ([14]; Postemergence, 16 g ai/ha): 0
Plant response rating, Quackgrass ([14]; Postemergence, 31 g ai/ha): 30
Plant response rating, Quackgrass ([14]; Postemergence, 62 g ai/ha): 40
Plant response rating, Bermudagrass ([15]; 16 g ai/ha, Preemergence): 40
Plant response rating, Bermudagrass ([15]; 31 g ai/ha, Preemergence): 90
Plant response rating, Bermudagrass ([15]; 62 g ai/ha, Preemergence): 100
Plant response rating, Bermudagrass ([15]; Postemergence, 8 g ai/ha): 20
Plant response rating, Bermudagrass ([15]; Postemergence, 16 g ai/ha): 50
Plant response rating, Bermudagrass ([15]; Postemergence, 31 g ai/ha): 80
Plant response rating, Bermudagrass ([15]; Postemergence, 62 g ai/ha): 95
